Consider 64 compounds from a melting point compilation (Tetko et al.; mined from patent text by program, amines drawn as free bases though some values may be those of a salt).

As to `CC(Oc1ccc([N+](=O)[O-])cc1)c1c(F)ccc(F)c1F` (centres undefined), the melting point is 120 °C.
The same measure for `CCOC(=O)c1sc(S(C)(=O)=O)c2c1CCc1cnn(C)c1-2`: 140 to 141 °C.
The compound `Nc1ccc2ccc(Oc3ccccc3)nc2n1` showed a melting point of 196 °C.
The same measure for `CCC1(CC)NS(=O)(=O)c2ccccc21`: 174 °C; for `O=C(NCCCCN1CCC(c2ccc3c(c2OCc2ccccc2)CCCC3)CC1)c1ccc(-c2ccc(C(F)(F)F)cc2)cc1`: 169 to 170 °C; for `C=C(C(=O)c1ccc(C(=O)NCCN2CCOCC2)cc1)c1cc(OC)c(OC)c(-c2cccs2)c1`: 84 to 87 °C.
`CCn1c(N)nc(N2CCc3ccccc3CC2)c(C#N)c1=O` yielded a melting point of 195 to 203 °C.
The same measure for `Cc1cc(N)c(Cl)c(C)n1`: 86 °C; for `NC(=O)c1ccccc1NC(=O)c1ccc(Cl)cc1`: 205 to 207 °C; for `O=C(Nc1ncnc2c1ncn2CC(O)CF)c1ccccc1` (racemic): 197 °C.
The same measure for `CC(=O)Nc1ccc(OC(C)=O)c2cnsc12`: 215 to 216 °C; for `CNC=C1C(=O)C(C)(C)OC1(C)C`: 80 to 82 °C; for `CCCNc1cc(-c2c(-c3cccc(C)c3)nc3cccnn23)ccn1`: 128 to 129 °C.
As to `O=[N+]([O-])c1ccccc1N1CCN(c2ccccc2)CCN1`, the melting point is 119 to 121 °C.
The same measure for `O=C(O)C1Cc2cccc([N+](=O)[O-])c2C1` (centres undefined): 140 °C; for `O=C(O)c1ccc(S(=O)(=O)Oc2ccc(-c3ccc(-c4c(Cc5ccccc5)sc5ccccc45)cc3)cc2)cc1O`: 236 to 238 °C; for `Cc1c(C(=O)O)cccc1-c1cccs1`: 91.5 to 93 °C.
`CCCCNC(=O)NCCOc1ccc2c(ccn2Cc2ccc(Cl)cc2)c1`: the melting point was in the range of 163 to 164 °C.
The same measure for `CCOC(=O)C1=C(C)NC(=S)N(C(=O)OCC)C1c1cccc(C(F)(F)F)c1` (centres undefined): 98 to 100 °C; for `C[C@H](NC(=O)c1ncc[nH]1)C(=O)NC(C=O)CC(=O)O` (some centres undefined): 115 °C; for `Cc1c(Cl)cc(C(C)(C)C)c(O)c1-c1nc2cc(S(=O)(=O)C(F)(F)F)ccc2[nH]1`: 174 to 176 °C.
The same measure for `CCOC(=O)C(=CNc1ccc(F)c(F)c1OCC(C)O)C(=O)OCC` (centres undefined): 52 to 55 °C.
The same measure for `c1csc(-c2ccc3cc(-c4cccs4)ccc3c2)c1`: 256 to 258 °C.
`C[C@@H]1[C@H](c2ccccc2)OC(=O)N1C(=O)CC1c2ccccc2C=Cc2ccccc21` yielded a melting point of 172 to 173 °C.
Regarding `c1ccc2c(c1)SSSSS2`, the melting point was in the range of 56 to 58 °C.
Consider `CN(O)C(=O)NCCCCCCCOCc1ccccc1`, for which the melting point fell in the range of 69 to 70.5 °C.
The same measure for `CCc1nc(Cl)nc(N)c1C#N`: 226 °C; for `CCn1cc(C(=O)C(=O)O)c2ccc(-c3ccc(C(F)(F)F)cc3)cc21`: 247 to 248 °C; for `COC(=O)C(OC)(OC)c1ccccc1Br`: 55 °C.
The same measure for `COC(=O)[C@]1(O)Cc2c(OC)ccc(OC)c2C2(C1)SCCS2`: 115 to 117 °C; for `CC(=O)OC(CCc1cc2cccnc2n(-c2cccc([N+](=O)[O-])c2)c1=O)c1ccncc1` (centres undefined): 69 to 71 °C.
The same measure for `CC(C)(C)NCC(O)COc1ccccc1-c1ccc(=S)[nH]n1` (centres undefined): 186 to 189 °C; for `COc1ccc(-c2nc(Sc3ccc(Cl)cc3)cc(N3CCN(C)CC3)n2)cc1`: 143 to 145 °C; for `N#Cc1ccccc1NC(=O)C1CCCCC1`: 135 to 137 °C.
`CC(=O)Nc1ccc(/C=C/C(=O)/C=C/c2ccc(NC(C)=O)cc2)cc1` yielded a melting point of 253 to 255 °C.
Take `COc1cc2c(cc1OC)C1C(Cl)=NC=NC1N2` (centres undefined): the melting point lay within 148 to 150 °C.
The same measure for `CCSc1ccc(Oc2ccc(C(=O)c3ccccc3)cc2)nc1C#N`: 88 to 90 °C; for `COc1ccc(Cc2cnc(N)nc2N)cc1OCCCSc1ccc(NC(C)=O)cc1`: 175 to 177 °C.
The same measure for `C=C(c1ccc(N2CCCC2)cc1)c1ccc(N2CCCC2)cc1`: 211 °C; for `CCC(C)(C)c1cc(-c2ccc(CC3SC(N4CCOCC4)=NC3=O)s2)ccc1O` (centres undefined): 200 to 202 °C; for `Cc1c(COc2cccc3c2CN(C2CCC(=O)NC2=O)C3=O)oc2ccccc12` (centres undefined): 210 to 212 °C.
The same measure for `c1ccc2c(c1)CCn1ccnc1C2=C1CCN(CCn2cccc2)CC1`: 166 °C.
Regarding `CC1(C)Cc2c(N)ccc(O)c2O1`, the melting point came out at 194 °C.
The same measure for `C#CCN1CCc2ccc([N+](=O)[O-])cc2CC1`: 122 to 125 °C; for `CCOCc1cc2cc(Cl)ccc2oc1=Nc1ccc(OC)cc1`: 136 to 138 °C.
The same measure for `CC(=O)OCC(=O)C1(O)C(C)CC2C3CCC4=CC(=O)C=CC4(C)C34OC4CC21C` (centres undefined): 180 to 186 °C; for `CCOC(=O)C1=C(C)NC(C)=C(C(=O)OCCN2CCN(C(c3ccccc3)c3ccccc3)CC2)C1c1ccccc1Cl` (centres undefined): 76 to 78 °C.
For the compound `CCOC(=O)C1CN(c2ccc(OC)cc2)CC1=O` (centres undefined), the melting point fell in the range of 58 to 60 °C.
The same measure for `O=C1Nc2cc([N+](=O)[O-])ccc2OC1(C(F)F)C(F)F`: 178 to 181 °C; for `CC(=O)c1ccc(C(=O)Nc2ccc(-n3nc(C(F)(F)F)cc3C(F)(F)F)cc2)cc1`: 203 to 204 °C.
Compound `CSCCCn1nc(-c2cccc(C(F)(F)F)c2F)c(=O)c2ccccc21` registered a melting point of 80 to 83 °C.
The same measure for `CN(CCN1C(=O)c2ccccc2C(C)(C)C1=O)CCN1C(=O)c2ccccc2C(C)(C)C1=O`: 106 to 107 °C; for `COc1ccc(C2=NN(Cc3ccc(C(=O)O)cc3)C(=O)[C@H]3CCCC[C@@H]23)cc1OC1CCCC1` (relative stereo): 189 to 190 °C; for `CCOC(=O)c1cc(C)n(-c2cccc(C(C)=O)c2)c1-c1ccccc1`: 100 to 102 °C.
With `CCN(CC)N(C(C)=O)c1nc2cc3nc(N(C(C)=O)N4CCCCC4)sc3cc2s1`, the melting point was in the range of 280 to 282 °C.
The same measure for `CC1CCCCC1OC(=O)c1cc(NC(=O)c2ccccc2)ccc1Cl` (centres undefined): 121 to 122 °C; for `COc1cccc(C2(CNC(=O)Nc3c(C(C)C)cc(N)cc3C(C)C)CCN(c3ccccc3O)CC2)c1`: 207 to 208 °C.
The same measure for `c1ccc(COc2ccc(N3c4ccccc4Sc4ccccc43)cc2)cc1`: 144 to 146 °C.
The same measure for `Cc1c(Cl)cc(-c2ccc(OC(=O)N3CCOCC3)nn2)cc1Cl`: 155 to 159 °C; for `CCCCCCCCCCC=Cc1cnn(C(C(=O)Nc2c(OC)cc(OC)cc2OC)c2ccccc2)c1` (centres undefined): 82 to 85 °C; for `NC(=NO)c1ccno1`: 146 to 148 °C.
The compound `NC(=O)c1sc2ccc(OCc3ccccc3)cc2c1Cl` gave a melting point of 206 °C.
The same measure for `COc1cccc(C2=C(C#N)C(c3ccccc3OC)c3c[nH]nc3N2)c1` (centres undefined): 192 °C.
On to `O=C(Oc1ccc(Cl)c(OCC2CC2(Cl)Cl)c1)N1CCCC1` (centres undefined), for which the melting point lay within 72 to 74 °C.

The term melting point denotes the temperature, or range, at which the solid turns liquid.
